Patent publication US9884065B2, “Inhibiting activity of senescent cells using a glucocorticoid” (Buck Institute for Research on Aging, priority 2011, dated 2018)

Key:
Type in all cases: cell-based, human
NF-κB = NF-κB reporter-luciferase transactivation assay; details: senescent cells; 500 nM corticosterone or 100 nM cortisol
Experimental: Nuclear extracts were prepared using the nuclear extract kit (Active Motif), and NF-κB DNA binding was determined using the TransAM NF-κB p65 kit (Active Motif). For transactivation assays, cells infected with the NF-κB reporter-luciferase lentivirus were lysed in buffer (Promega), and luciferase activity was normalized to cell number, as described (Freund et al., 2011, EMBO J. 30:1536-1548).

IL-1α = assay: Immunostaining for IL-1α in HCA2 cells; details: senescent cells 7 days after irradiation; 500 nM corticosterone or 100 nM cortisol
Experimental: (FIG. 14B) mRNA extracted from cells described in (FIG. 14A) was used to quantify transcripts for IL-6 (normalized to tubulin). (FIG. 14C) Pre and Sen (XRA) cells, prepared as described in (FIG. 14A), were immunostained for IL-1α. Sen (XRA) cells were immunostained 7 days after irradiation.
Cells were cultured in 8-well chamber slides, fixed in 4% formaldehyde (Sigma) for 10 min at 4° C. and permeabilized in PBS-0.5% Triton for 10 min in 4° C.

Sen (XRA) HCA2 cells = assay: Senescent phenotypes of Sen (XRA) HCA2 cells (SA-Bgal, BrdU labeling, 53BP1 foci); details: 500 nM corticosterone or 100 nM cortisol, 7 days
Experimental: Conditioned media from presenescent (Pre) and the control and glucocorticoid-treated Sen (XRA) cells were analyzed by ELISA for IL-6. […] The percentage of presenescent (Pre) and Sen (XRA) cells that express SA-Bgal were scored (upper panel). A representative field corresponding to each condition is also shown (bottom panels). […] The percentage of cells with >2 53BP1 nuclear foci was determined using CELL PROFILER software. At least 200 cells were analyzed per condition.
HCA2 human neonatal foreskin, IMR-90 human fetal lung fibroblasts and T47D human breast cancer cells were obtained and cultured in 3% O2 and 10% CO2 as previously described (Coppe et al., 2008, PLoS Biol. 6:2853-2868; Rodier et al., 2009, Nature Cell Biol. 11:973-979; Coppe et al., 2010, PLoS ONE 5:e9188). Cells were induced to senesce by X-irradiation (10 Gy) or lentiviral expression of oncogenic RAS or MAP kinase kinase 6 (MKK6), as described (Coppe et al., 2008, PLoS Biol. 6:2853-2868; Rodier et al., 2009, Nature Cell Biol. 11:973-979; Freund et al., 2011, EMBO J. 30:1536-1548). Pre-senescent and senescent cells had 24-h BrdU labeling indices of >75% and <10% respectively (Rodier et al., 2009, Nature Cell Biol. 11:973-979); <10% and >70% respectively stained positive for senescence-associated beta-galactosidase activity (Dimri et al., 1995, Proc. Natl. Acad. Sci. USA 92:9363-9367) (Biovision senescence detection kit). HEK293FT packaging cells (Invitrogen) were used to generate lentiviruses. Corticosterone, cortisol and RU-486 were obtained from Sigma-Aldrich.

SASP factor mRNA = assay: Real-time quantitative PCR of transcripts in HCA2 cells (normalized to tubulin); details: 500 nM corticosterone or 100 nM cortisol; for IL-6, IL-8, MMP-3 mRNA levels: senescent X-irradiated HCA2 cells
From the text: Cells (7,500/well) in 96-well plates were lysed and reverse transcribed using the Cells-To-Ct kit (Ambion).

IL-6 = assay: Initial drug screen (Prestwick Chemical Library), IL-6 ELISA of medium; details: 2.5 μM, 48 hours, HCA2 fibroblasts, 0.2% serum
Experimental: The initial drug screen was performed in a 96-well format using automated liquid handling with a Biomek FX (Beckman Coulter, CA). Senescent cells were plated 24 hours after X-irradiation at 7,500 cells per well in 96-well plates. Six days after plating the senescent cells, the pre-senescent cells were plated at 7,500 cells per well in 96-well plates. Twenty-four hours after pre-senescent plating, both pre-senescent and senescent cells were washed and incubated in low (0.2%) serum for 48 hours to arrest cell proliferation of the pre-senescent cells. […] Forty-eight hours after compound addition, the medium in each well was removed and frozen for assay by ELISA to quantitate the levels of IL-6. The cells, which remained in the wells after the medium was removed, were lysed and ATP levels were measured (ATPlite 1-step assay, Perkin Elmer, MA) to exclude compounds that lowered IL-6 through toxicity (cell death). Experimental wells in each plate were normalized to plate mean or same-plate DMSO controls for the ELISA and ATP assays, respectively.
To identify small molecules that may be potential SASP modulators, a screening strategy that entailed administering compounds to parallel 96-well plates containing human fibroblasts (strain HCA2) that were either quiescent or senescent was developed. […] After 48 hours, the medium from each well was removed, and the cells were lysed. […] Cell lysates were assayed for ATP as a surrogate for cell number.

Structure (SMILES) | NF-κB transactivation activity (NF-κB) | expression of IL-1α protein (nuclear staining) (IL-1α) | fraction of cells that expressed SA-Bgal (Sen (XRA) HCA2 cells) | number of persistent DNA damage foci (53BP1) (Sen (XRA) HCA2 cells) | senescence growth arrest (24 h BrdU labeling index) (Sen (XRA) HCA2 cells) | GR mRNA levels (SASP factor mRNA) | IκBα mRNA levels (SASP factor mRNA) | IL-6, IL-8, MMP-3 mRNA levels (SASP factor mRNA) | IL-6 secretion (ELISA) (IL-6)
C[C@]12CCC(=O)C=C1CC[C@@H]1[C@@H]2[C@@H](O)C[C@@]2(C)[C@H]1CC[C@]2(O)C(=O)CO [cortisol] | significantly decreased | suppressed expression of IL-1α protein | no effect on the fraction of cells that expressed SA-Bgal | no effect on the number of persistent DNA damage foci | maintained their low 24 h BrdU labeling index | unaffected by glucocorticoid addition | no effect on IκBα mRNA levels | strongly reduced | suppressed IL-6 secretion
C[C@]12C[C@H](O)[C@H]3[C@@H](CCC4=CC(=O)CC[C@@]43C)[C@@H]1CC[C@@H]2C(=O)CO [corticosterone] | significantly decreased | suppressed expression of IL-1α protein | no effect on the fraction of cells that expressed SA-Bgal | no effect on the number of persistent DNA damage foci | maintained their low 24 h BrdU labeling index | unaffected by glucocorticoid addition | no effect on IκBα mRNA levels | strongly reduced | suppressed IL-6 secretion
